The text below walks through data of patent US6784184B2, “5-(arylsulfonyl)-,5-(arylsulfinyl), and 5-(arylsulfanyl)-thiazolidine-2,4-diones useful for inhibition of farnesyl-protein transferase” (Wyeth Holdings Corporation, priority 2001, dated 2004).

Molecules are shown by their SMILES.

One data set addresses FPTase (H-Ras substrate) (UniProt P29702+P49355). As to the kind of experiment: in vitro FTase Inhibition Assay, H-Ras as substrate for farnesylation. The class given is biochemical. Conditions: H-Ras used as substrate for farnesylation. The essentials: (§1)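 His6-Ras substrate ([…]) with 10 ng FPTase in 50 mM Tris pH 7.5, ZnCl2, MgCl2, KCl, DTT, 0.2% octyl-β-glucoside, 1% DMSO; incubated 30-90 min. TCA/SDS-precipitated Ras filtered, 3H-FPP incorporation counted; % inhibition from background-corrected cpm versus no-compound control.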

The next data set concerns the target FPTase (K-Ras substrate) (UniProt P29702+P49355). As to the kind of experiment: in vitro FTase Inhibition Assay, K-Ras as substrate for farnesylation. Particulars: K-Ras used as substrate for farnesylation. The class given is biochemical. The essentials: as §1
The test system of data set [1] is K-ras dependent human colon carcinoma (LoVo). As to the kind of experiment: In vivo effects against K-ras dependent human colon carcinoma (LoVo). Conditions: rats; for S/T = No. Survivors/No.Treated: Day +35 post tumor cell implantation. On the procedure:
Compounds of this invention were tested for in vivo effects in rats against various tumors. For the compound of Example 114, when tested against a K-ras dependent human colon carcinoma (LoVo), the following results were obtained (Table II): […]

Take `COc1ccc(S(=O)(=O)C2(CCCC#Cc3cc(Cl)ccc3Cl)SC(=O)NC2=O)cc1` (stereo not shown) [Example 114, 5-[5-(2,5-Dichloro-phenyl)pent-4-ynyl]-5-(4-methoxy-benzenesulfonyl)-thiazolidine-2,4-dione]: the IC50 lay in the range of 0.013 to 0.032 µM on FPTase (H-Ras substrate) and 0.032 to 0.32 µM at FPTase (K-Ras substrate). For the same molecule, the “Mean Tumor Weight” value in data set [1] (Day 8, 75* mg/kg IP, BID days 1-20, prepared in 2% Tween 80 in D5W, vs 2% Tween in D5W) is listed as 86 mg. The “% T/C” value in data set [1] (Day 15, 75* mg/kg IP, BID days 1-20, prepared in 2% Tween 80 in D5W, vs 2% Tween in D5W) was 150%. For the same molecule, the “S/T = No. Survivors/No.Treated” value in data set [1] (50 mg/kg IP, BID days 1-20, Methocel/Tween 80 series) was 5/10; in data set [1] (75 mg/kg IP, BID days 1-20, Methocel/Tween 80 series) it was 8/10; in data set [1] (100 mg/kg IP, once a day days 1-20, Methocel/Tween 80 series) it was 9/10; in data set [1] (100 mg/kg PO, BID days 1-20, 20% BCD in 0.1 N HCl series) it was 9/10.
Turning to `COc1ccc(S(=O)(=O)C2(CCCC#Cc3cccc(N)c3)SC(=O)NC2=O)cc1` (stereo not shown) [Example 220, 5-[5-(3-Aminophenyl)pent-4-ynyl]-5-(4-methoxybenzenesulfonyl)-thiazolidine-2,4-dione], the 50% inhibitory concentration (IC50) against FPTase (H-Ras substrate) was determined as 0.09 µM; against FPTase (K-Ras substrate) it was 3 µM.
The corresponding values for `COc1ccc(S(=O)(=O)C2(CCCC#Cc3cc(NC(=O)OCc4ccccc4)ccc3C)SC(=O)N(C(=O)OCc3ccccc3)C2=O)cc1` (stereo not shown) [Example 226, Benzyl 5-[5-(5-{[(benzyloxy)carbonyl]-amino}-2-methylphenyl)pent-4-ynyl]-5-[(4-methoxyphenyl)sulfonyl]-2,4-dioxo-1,3-thiazolidine-3-carboxylate] are 0.03 to 0.05 µM and 0.1 to 3.2 µM.
With `COc1ccc(S(=O)(=O)C2(CCCC#Cc3cc(NC(=O)OCc4ccc([N+](=O)[O-])cc4)ccc3C)SC(=O)N(C(=O)OCc3ccc([N+](=O)[O-])cc3)C2=O)cc1` (stereo not shown) [Example 227, 4-Nitrobenzyl 5-[(4-methoxyphenyl)sulfonyl]-5-{5-[2-methyl-5-({[(4-nitrobenzyl)oxy]carbonyl}amino)phenyl]pent-4-ynyl}-2,4-dioxo-1,3-thiazolidine-3-carboxylate], the values for the IC50 against FPTase (H-Ras substrate) and on FPTase (K-Ras substrate) were 0.007 to 0.01 µM and 0.21 to 0.4 µM, respectively.
For `COC(=O)Nc1ccc(C)c(C#CCCCC2(S(=O)(=O)c3ccc(OC)cc3)SC(=O)N(C(=O)OC)C2=O)c1` (stereo not shown) [Example 228, Methyl 5-(5-{5-[(methoxycarbonyl)amino]-2-methylphenyl}pent-4-ynyl)-5-[(4-methoxyphenyl)sulfonyl]-2,4-dioxo-1,3-thiazolidine-3-carboxylate], the figures for the IC50 at FPTase (H-Ras substrate) and against FPTase (K-Ras substrate) were 0.004 to 0.07 µM and 0.23 to 1 µM, respectively.
For `COc1ccc(S(=O)(=O)C2(CCCC#Cc3cc(NC(=O)OC(C)C)ccc3C)SC(=O)N(C(=O)OC(C)C)C2=O)cc1` (stereo not shown) [Example 229, Isopropyl 5-(5-{5-[(isopropoxycarbonyl)-amino]-2-methylphenyl}pent-4-ynyl)-5-[(4-methoxyphenyl)sulfonyl]-2,4-dioxo-1,3-thiazolidine-3-carboxylate], the half-maximal inhibitory concentration (IC50) fell in the range of 0.006 to 0.02 µM on FPTase (H-Ras substrate) and 0.1 to 0.7 µM at FPTase (K-Ras substrate).
The corresponding values for `COc1ccc(S(=O)(=O)C2(CCCC#Cc3cc(NC(=O)OCC(C)(C)C)ccc3C)SC(=O)N(C(=O)OCC(C)(C)C)C2=O)cc1` (stereo not shown) [Example 230, Neopentyl 5-[(4-methoxyphenyl)sulfonyl]-5-[5-(2-methyl-5-{[(neopentyloxy)carbonyl]-amino}phenyl)pent-4-ynyl]-2,4-dioxo-1,3-thiazolidine-3-carboxylate] are 0.003 to 0.0035 µM and 0.02 to 0.5 µM.
The matching figures for `CCCCOC(=O)Nc1ccc(C)c(C#CCCCC2(S(=O)(=O)c3ccc(OC)cc3)SC(=O)N(C(=O)OCCCC)C2=O)c1` (stereo not shown) [Example 231, Butyl 5-(5-{5-[(butoxycarbonyl)amino]-2-methylphenyl}pent-4-ynyl)-5-[(4-methoxy-phenyl)sulfonyl]-2,4-dioxo-1,3-thiazolidine-3-carboxylate]: 0.01 to 0.021 µM and 0.1 to 1 µM.
The matching figures for `COc1ccc(S(=O)(=O)C2(CCCC#Cc3cc(NC(=O)OCC(C)C)ccc3C)SC(=O)N(C(=O)OCC(C)C)C2=O)cc1` (stereo not shown) [Example 232, Isobutyl 5-(5-{5-[(isobutoxycarbonyl)-amino]-2-methylphenyl}pent-4-ynyl)-5-[(4-methoxyphenyl)sulfonyl]-2,4-dioxo-1,3-thiazolidine-3-carboxylate]: 0.005 to 0.01 µM and 0.04 to 0.64 µM.
With `CC[C@]1(O)C[C@H]2CN(CCc3c([nH]c4ccccc34)[C@@](C(=O)OC)(c3cc4c(cc3OC)N(C=O)[C@H]3[C@@](O)(C(=O)OC)[C@H](OC(C)=O)[C@]5(CC)C=CCN6CC[C@]43[C@@H]65)C2)C1` [Vincristine, reference compound], the “S/T = No. Survivors/No.Treated” value in data set [1] (1 mg/kg IP on days 5, 9 and 13) is 9/10.
